Laboratory results as given in patent publication US20240400586A1, “HETEROARYL DERIVATIVE PARP INHIBITOR AND USE THEREOF” (HAISCO PHARMACEUTICAL GROUP CO., LTD., priority 2021, published 2024).

Target: PARP-1 enzyme (Homo sapiens (Human), UniProt P09874)
Experiment: PARP1 enzyme activity test (BPS Bioscience chemiluminescence kit)
Type: biochemical
Conditions: not given
Text: Inhibition %=(1−(RLUsample−RLUmin)/(RLUmax−RLUmin))×100% (formula 1)

Sequence of PARP-1 enzyme (P09874 whole entry): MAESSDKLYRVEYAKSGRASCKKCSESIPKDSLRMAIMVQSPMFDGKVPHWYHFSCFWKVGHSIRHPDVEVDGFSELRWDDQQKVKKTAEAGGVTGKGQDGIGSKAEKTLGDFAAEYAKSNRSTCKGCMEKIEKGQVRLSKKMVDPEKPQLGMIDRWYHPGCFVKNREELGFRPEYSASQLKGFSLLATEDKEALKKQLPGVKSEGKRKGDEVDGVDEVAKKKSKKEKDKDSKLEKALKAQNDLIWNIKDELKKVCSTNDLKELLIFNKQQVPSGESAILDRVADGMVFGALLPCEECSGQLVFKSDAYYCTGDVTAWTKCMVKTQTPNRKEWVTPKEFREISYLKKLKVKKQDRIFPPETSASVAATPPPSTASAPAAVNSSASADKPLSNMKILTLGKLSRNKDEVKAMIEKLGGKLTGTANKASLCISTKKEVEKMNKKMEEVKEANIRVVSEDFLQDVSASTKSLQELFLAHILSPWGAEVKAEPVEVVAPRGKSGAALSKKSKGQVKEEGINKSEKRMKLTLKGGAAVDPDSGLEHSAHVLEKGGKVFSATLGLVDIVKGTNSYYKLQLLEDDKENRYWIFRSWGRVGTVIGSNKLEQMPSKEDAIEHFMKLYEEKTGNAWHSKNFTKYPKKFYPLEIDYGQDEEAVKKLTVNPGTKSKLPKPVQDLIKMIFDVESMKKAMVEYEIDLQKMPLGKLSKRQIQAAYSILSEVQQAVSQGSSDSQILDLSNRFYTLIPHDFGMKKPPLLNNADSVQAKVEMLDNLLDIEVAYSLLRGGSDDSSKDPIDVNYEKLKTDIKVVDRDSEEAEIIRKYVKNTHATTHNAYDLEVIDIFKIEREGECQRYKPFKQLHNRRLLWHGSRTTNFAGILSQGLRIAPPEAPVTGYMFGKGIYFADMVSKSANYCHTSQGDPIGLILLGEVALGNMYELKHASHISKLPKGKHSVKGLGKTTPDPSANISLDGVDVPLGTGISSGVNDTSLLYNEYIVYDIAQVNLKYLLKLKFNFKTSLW

SMILES | IC50 [nM]
CCc1cc2ncc(CN3CCN(c4cn5cc(C(F)F)nc5cn4)CC3)cc2[nH]c1=O [Compound 45] | 0.73
CCc1cc2ncc(CN3CCN(c4ccc(C(=O)N[C@@H]5CCNC5)nc4)CC3)cc2[nH]c1=O [Compound 18, (R)-5-(4-((7-ethyl-6-oxo-5,6-dihydro-1,5-naphthyridin-3-yl)methyl)piperazin-1-yl)-N-(pyrrolidin-3-yl)picolinamide] | 0.33
CCc1cc2ncc(CN3CCN(c4ccc(C(=O)NC5CN(c6ccccc6)C5)nc4)CC3)cc2[nH]c1=O [Compound 46, 5-(4-((7-ethyl-6-oxo-5,6-dihydro-1,5-naphthyridin-3-yl)methyl)piperazin-1-yl)-N-(1-phenylazetidin-3-yl)picolinamide] | 0.56
CCc1cc2ncc(CN3CCN(c4ccc(NC(C)=O)nc4)CC3)cc2[nH]c1=O [Compound 7, N-(5-(4-((7-ethyl-6-oxo-5,6-dihydro-1,5-naphthyridin-3-yl)methyl)piperazin-1-yl)pyridin-2-yl)acetamide] | 0.32
CCc1cc2ncc(CN3CCN(c4ccc(C(=O)N[C@H]5CCNC5)nc4)CC3)cc2[nH]c1=O [Compound 20, (S)-5-(4-((7-ethyl-6-oxo-5,6-dihydro-1,5-naphthyridin-3-yl)methyl)piperazin-1-yl)-N-(pyrrolidin-3-yl)picolinamide] | 0.32
CCc1cc2ncc(CN3CCN(c4ccc(C(=O)Nc5ccn(C)n5)nc4)CC3)cc2[nH]c1=O [Compound 48, 5-(4-((7-ethyl-6-oxo-5,6-dihydro-1,5-naphthyridin-3-yl)methyl)piperazin-1-yl)-N-(1-methyl-1H-pyrazol-3-yl)picolinamide] | 0.35
CCc1cc2ncc(CN3CCN(c4cn5cc(C(F)(F)F)nc5cn4)CC3)cc2[nH]c1=O [Compound 43, 3-ethyl-7-((4-(2-(trifluoromethyl)imidazo[1,2-a]pyrazin-6-yl)piperazin-1-yl)methyl)-1,5-naphthyridin-2 (1H)-one] | 0.93
CCc1cc2ncc(CN3CCN(c4cn5cc(C)nc5cn4)CC3)cc2[nH]c1=O [Compound 15, 3-ethyl-7-((4-(2-methylimidazo[1,2-a]pyrazin-6-yl)piperazin-1-yl)methyl)-1,5-naphthyridin-2 (1H)-one] | 0.65

Second part, the compound after the results:

IC50 [nM] | SMILES
1.33 | CCc1cc2ncc(CN3CCN(c4ccc(-c5nnc(C)o5)nc4)CC3)cc2[nH]c1=O [Compound 3, 3-ethyl-7-((4-(6-(5-methyl-1,3,4-oxadiazol-2-yl)pyridin-3-yl)piperazin-1-yl)methyl)-1,5-naphthyridin-2 (1H)-one]
2 | CCc1cc2ncc(CN3CCN(c4ccc(Nc5ccn(C)n5)nc4)CC3)cc2[nH]c1=O [Compound 32, 3-ethyl-7-((4-(6-((1-methyl-1H-pyrazol-3-yl)amino)pyridin-3-yl)piperazin-1-yl)methyl)-1,5-naphthyridin-2 (1H)-one]
0.58 | CCc1cc2ncc(CN3CCN(c4ccc(NC(=O)OC)nc4)CC3)cc2[nH]c1=O [Compound 8, methyl(5-(4-((7-ethyl-6-oxo-5,6-dihydro-1,5-naphthyridin-3-yl)methyl)piperazin-1-yl)pyridin-2-yl)carbamate]
0.51 | CCc1cc2ncc(CN3CCN(c4ccc(C(=O)NC5CCNCC5)nc4)CC3)cc2[nH]c1=O [Compound 16, 5-(4-((7-ethyl-6-oxo-5,6-dihydro-1,5-naphthyridin-3-yl)methyl)piperazin-1-yl)-N-(piperidin-4-yl)picolinamide]
0.35 | CCc1cc2ncc(CN3CCN(c4ccc(C(=O)NC5CCN(C)CC5)nc4)CC3)cc2[nH]c1=O [Compound 17, 5-(4-((7-ethyl-6-oxo-5,6-dihydro-1,5-naphthyridin-3-yl)methyl)piperazin-1-yl)-N-(1-methylpiperidin-4-yl)picolinamide]
0.92 | CCc1cn2cc(N3CCN(Cc4cnc5cc(CC)c(=O)[nH]c5c4)CC3)ncc2n1 [Compound 44, 3-ethyl-7-((4-(2-ethylimidazo[1,2-a]pyrazin-6-yl)piperazin-1-yl)methyl)-1,5-naphthyridin-2 (1H)-one]
2.01 | CCc1cc2ncc(CN3CCN(c4cnc(C(=O)NC)cn4)CC3)cc2[nH]c1=O [Compound 2, 5-(4-((7-ethyl-6-oxo-5,6-dihydro-1,5-naphthyridin-3-yl)methyl)piperazin-1-yl)-N-methylpyrazine-2-carboxamide]
3.66 | CCc1cc2ncc(CN3CCN(c4ccc5c(c4)CN(C)C5=O)CC3)cc2[nH]c1=O [Compound 1, 3-ethyl-7-((4-(2-methyl-1-oxoisoindolin-5-yl)piperazin-1-yl)methyl)-1,5-naphthyridin-2 (1H)-one]
0.75 | CCc1cc2ncc(CN3CCN(c4ccc5nc(C)cn5n4)CC3)cc2[nH]c1=O [Compound 27, 3-ethyl-7-((4-(2-methylimidazo[1,2-b]pyridazin-6-yl)piperazin-1-yl)methyl)-1,5-naphthyridin-2 (1H)-one]
0.45 | CCc1cc2ncc(CN3CCN(c4ccc(-c5ccn[nH]5)nc4)CC3)cc2[nH]c1=O [Compound 30, 7-((4-(6-(1H-pyrazol-5-yl)pyridin-3-yl)piperazin-1-yl)methyl)-3-ethyl-1,5-naphthyridin-2 (1H)-one]
1.7 | CCc1cc2ncc(CN3CCN(c4ccc5nc(C)nn5c4)CC3)cc2[nH]c1=O [Compound 31, 3-ethyl-7-((4-(2-methyl-[1,2,4]triazolo[1,5-a]pyridin-6-yl)piperazin-1-yl)methyl)-1,5-naphthyridin-2 (1H)-one]
0.76 | CCc1cc2ncc(CN3CCN(c4cnc(C(=O)NC5CC5)cc4F)CC3)cc2[nH]c1=O [Compound 13, N-cyclopropyl-5-(4-((7-ethyl-6-oxo-5,6-dihydro-1,5-naphthyridin-3-yl)methyl)piperazin-1-yl)-4-fluoropicolinamide]

System: breast tumor cells MDA-MB-436
Experiment: MDA-MB-436 cell activity test (CellTiter-Glo, 7 days)
Type: cell-based
Conditions: Homo sapiens, MDA-MB-436, 168 h; 10 μM, 7 days incubation; read-out: MDA-MB-436 Max inh. % 10 μM
Procedure: Breast tumor cells MDA-MB-436 were purchased from ATCC, the culture medium was Leibovitz's L-15+10% FBS, and the cells were cultured in a CO2-free incubator at 37° C. On day 1, the cells in the exponential growth phase were collected, and the cell suspension was adjusted to 4000 cells/135 μL with the culture medium. 135 μL of the cell suspension was added to each well of a 96-well cell culture plate and incubated overnight. On day 2, compounds at different concentrations were added, and the plate was placed in the incubator and incubated for 7 days. After the incubation was completed, according to operation instructions for a CellTiter-Glo kit (Promega, G7573), 75 μL of CTG solution, which was already pre-melted and equilibrated to room temperature, was added to each well, and the mixture was uniformly mixed for 2 min using a microplate shaker. The plate was placed at room temperature for 10 min, and then […] were measured using an Envision2104 plate reader (PerkinElmer). The inhibition rate was calculated using formula (1), where RLUcompound was the readout of the drug treated group, RLUcontrol was the average value of the vehicle control group, and RLUblank was the average value of the cell-free well. The IC50 value was calculated using GraphPad Prism software.

SMILES | inhibition at 10 µM [%]
CCc1cc2ncc(CN3CCN(c4ccc(NC(=O)[C@H]5C[C@H]5F)nc4)CC3)cc2[nH]c1=O [Compound 34, (1R,2R)—N-(5-(4-((7-ethyl-6-oxo-5,6-dihydro-1,5-naphthyridin-3-yl)methyl)piperazin-1-yl)pyridin-2-yl)-2-fluorocyclopropane-1-carboxamide] | 81.9
CCc1cc2ncc(CN3CCN(c4ccc(NC(=O)[C@@H]5C[C@H]5F)nc4)CC3)cc2[nH]c1=O [Compound 35, (1S,2R)—N-(5-(4-((7-ethyl-6-oxo-5,6-dihydro-1,5-naphthyridin-3-yl)methyl)piperazin-1-yl)pyridin-2-yl)-2-fluorocyclopropane-1-carboxamide] | 90.4
CCc1cc2ncc(CN3CCN(c4ccc(C(=O)NCCOC5CC5)nc4)CC3)cc2[nH]c1=O [Compound 53, N-(2-cyclopropoxyethyl)-5-(4-((7-ethyl-6-oxo-5,6-dihydro-1,5-naphthyridin-3-yl)methyl)piperazin-1-yl)picolinamide] | 90.6
CCc1cc2ncc(CN3CCN(c4ccc(C(=O)NCCOC5CC5(F)F)nc4)CC3)cc2[nH]c1=O (stereo not shown) [Compound 52, N-(2-(2,2-difluorocyclopropoxy)ethyl)-5-(4-((7-ethyl-6-oxo-5,6-dihydro-1,5-naphthyridin-3-yl)methyl)piperazin-1-yl)picolinamide] | 92.4

Same assay, conditions: Homo sapiens, MDA-MB-436, 168 h; 7 days incubation; read-out: MDA-MB-436 cell inhibitory activity IC50

SMILES | IC50 [nM]
CCc1cc2ncc(CN3CCN(c4ccc(NC(=O)[C@@H]5C[C@H]5F)nc4)CC3)cc2[nH]c1=O [Compound 35, (1S,2R)—N-(5-(4-((7-ethyl-6-oxo-5,6-dihydro-1,5-naphthyridin-3-yl)methyl)piperazin-1-yl)pyridin-2-yl)-2-fluorocyclopropane-1-carboxamide] | 9.8
CCc1cc2ncc(CN3CCN(c4ccc(C(=O)NCCOC5CC5(F)F)nc4)CC3)cc2[nH]c1=O (stereo not shown) [Compound 52, N-(2-(2,2-difluorocyclopropoxy)ethyl)-5-(4-((7-ethyl-6-oxo-5,6-dihydro-1,5-naphthyridin-3-yl)methyl)piperazin-1-yl)picolinamide] | 3.1

The remaining lines, values ahead:

IC50 [nM] | SMILES
16.5 | CCc1cc2ncc(CN3CCN(c4ccc(NC(=O)[C@H]5C[C@H]5F)nc4)CC3)cc2[nH]c1=O [Compound 34, (1R,2R)—N-(5-(4-((7-ethyl-6-oxo-5,6-dihydro-1,5-naphthyridin-3-yl)methyl)piperazin-1-yl)pyridin-2-yl)-2-fluorocyclopropane-1-carboxamide]
2.2 | CCc1cc2ncc(CN3CCN(c4ccc(C(=O)NCCOC5CC5)nc4)CC3)cc2[nH]c1=O [Compound 53, N-(2-cyclopropoxyethyl)-5-(4-((7-ethyl-6-oxo-5,6-dihydro-1,5-naphthyridin-3-yl)methyl)piperazin-1-yl)picolinamide]
